This note sets out measurements from ChEMBL document CHEMBL1149994, “Total synthesis of novel conduritol related compounds capable of modulating insulin release” (1994).

The species named for assay [1] is Rattus norvegicus. In words: Tested for change in release of insulin from pancreatic islets of Sprague-Dawley rats at a concentration of 16.7 mM glucose. The assay is classed as functional.
The species named for assay [2] is Rattus norvegicus. Kind of assay: Tested for change in release of insulin from pancreatic islets of Sprague-Dawley rats at a concentration of 2.8 mM glucose. Format: functional.

Turning to `O[C@@H]1[C@H](O)[C@@H](O)C2C(C3CCC2[C@H](O)[C@@H]3O)[C@H]1O` (stereo partly specified), the Change in the assay listed under Rattus norvegicus [1] is on record as 44%; in the assay filed under Rattus norvegicus [2], -18%.
For the molecule `O[C@H]1[C@H](O)[C@@H](O)C=C[C@H]1O`, the results for the Change in the assay listed under Rattus norvegicus [1] and in the assay listed under Rattus norvegicus [2] were -3% and 9%, respectively.
In the same order, the values of `O[C@@H]1[C@H](O)[C@H](O)C=C[C@@H]1O` are 0% and 0%.
Regarding `CC(=O)O[C@@H]1[C@H](OC(C)=O)[C@@H](OC(C)=O)C2C(C3CCC2[C@H](O)[C@@H]3O)[C@H]1OC(C)=O` (stereo partly specified), the results for the Change in the assay listed under Rattus norvegicus [1] and in the assay listed under Rattus norvegicus [2] were -23% and -60%, respectively.
As for `O[C@@H]1[C@H](O)[C@@H](O)C2C([C@H](O)CC[C@@H]2O)[C@H]1O` (stereo partly specified), the Change in the assay filed under Rattus norvegicus [1] is reported as -35%; in the assay filed under Rattus norvegicus [2] it was -45%.
For the molecule `O[C@@H]1[C@H](O)[C@@H](O)C=C[C@H]1O`, the Change in the assay listed under Rattus norvegicus [1] is -30%; in the assay filed under Rattus norvegicus [2], 45%.
As for `CC(C)[C@@]12CC[C@@]3(C)C4C1[C@H](O[C@H]2[C@@H]3O)C(O)[C@@H](O)[C@@H]4O` (single isomer, unassigned), the Change in the assay filed under Rattus norvegicus [1] is -45%; in the assay listed under Rattus norvegicus [2], -60%.
For the molecule `O[C@H]1[C@H](O)[C@@H](O)C=C[C@@H]1O`, the figures for the Change in the assay filed under Rattus norvegicus [1] and in the assay listed under Rattus norvegicus [2] were 50% and 41%, respectively.
For `C[C@@]1(O)CC2C(C[C@@]1(C)O)[C@H](O)[C@@H](O)[C@@H](O)[C@@H]2O` (stereo partly specified) the same measures were 0% and -60%.
Regarding `CC(C)[C@@]12CC[C@@](C)(C3C1[C@H](O)[C@@H](O)[C@@H](O)[C@@H]3O)[C@@H](O)[C@H]2O` (stereo partly specified), the Change in the assay filed under Rattus norvegicus [1] and in the assay filed under Rattus norvegicus [2] was -30% throughout.
On to `O[C@@H]1[C@H](O)[C@H](O)C=C[C@H]1O`, for which the Change is -20% in the assay listed under Rattus norvegicus [1] and 27% in the assay listed under Rattus norvegicus [2].
As for `OC1[C@H]2O[C@@H]3C4CCC(C(C42)[C@@H](O)[C@@H]1O)[C@H]3O` (single isomer, unassigned), the Change was -70% in the assay filed under Rattus norvegicus [1] and 0% in the assay filed under Rattus norvegicus [2].
Turning to `O[C@H]1[C@H](O)[C@H](O)C=C[C@H]1O`, the figures for the Change in the assay filed under Rattus norvegicus [1] and in the assay listed under Rattus norvegicus [2] were 15% and 12%, respectively.
